These results are taken from ChEMBL document CHEMBL1201862, “PubChem BioAssay data set” (2004).

The source made the active and inactive calls. Rule as the data show it, for most assays here: actives have a measured EC50 and inactives only a lower limit.

What all share (type): functional
Test [1] is described as follows: Luminescence Cell-Based Dose Confirmation to Identify Activators of 5'UTR Stem-Loop Driven Alpha-Synuclein mRNA Translation in H4 Neuroglioblastoma Cells. [Related pubchem assays: 1829 (Project Summary), 1814 (Primary HTS)].
The nature of test [2]: Luminescence Cell-Based Dose Response to Identify Activators of 5'UTR Stem-Loop Driven Prion Protein mRNA Translation in H4-C Neuroglioblastoma Cells. [Related pubchem assays: 1829 (Project Summary), 1814 (Primary HTS)].
Test [3] is described as follows: Luminescence Cell-Based Dose Response to Identify Activators of Luciferase Translation or Activity in H4-C Neuroglioblastoma Cells. [Related pubchem assays: 1829 (Project Summary), 1814 (Primary HTS)].
Test [4] in a line: Luminescence Cell-Based Dose Response HTS to Identify Activators of Luciferase Translation or Activity in H4 […] Cells. [Related pubchem assays: 1829 (Project Summary), 1814 (Primary HTS)].
A further test deals with T1, Leucine aminopeptidase (Plasmodium falciparum 3D7, UniProt Q8IL11).
T1 sequence (Q8IL11 whole entry): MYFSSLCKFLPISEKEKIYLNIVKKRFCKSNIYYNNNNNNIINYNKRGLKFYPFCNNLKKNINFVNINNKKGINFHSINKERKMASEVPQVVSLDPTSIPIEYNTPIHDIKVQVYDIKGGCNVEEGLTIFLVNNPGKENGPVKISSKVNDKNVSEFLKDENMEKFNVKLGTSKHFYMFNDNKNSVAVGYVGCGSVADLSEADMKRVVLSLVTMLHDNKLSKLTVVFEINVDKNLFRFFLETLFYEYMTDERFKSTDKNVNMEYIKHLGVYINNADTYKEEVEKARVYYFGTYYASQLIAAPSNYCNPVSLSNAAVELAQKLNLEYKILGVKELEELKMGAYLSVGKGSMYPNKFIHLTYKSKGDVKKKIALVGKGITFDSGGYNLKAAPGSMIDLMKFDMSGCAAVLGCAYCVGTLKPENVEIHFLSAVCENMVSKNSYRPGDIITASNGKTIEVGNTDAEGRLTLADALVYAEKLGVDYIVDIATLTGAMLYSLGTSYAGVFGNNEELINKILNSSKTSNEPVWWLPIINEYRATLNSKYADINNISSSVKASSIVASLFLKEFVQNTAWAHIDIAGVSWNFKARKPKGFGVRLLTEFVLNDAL
The test can be described thus: P. falciparum M17LAP inhibitors, primary screen, biochemical, fluorogenic H-Leu-NHMec substrate, 1536-well (AID 1619).

Another test concerns H4. The experiment in a line: Luminescence Cell-Based Dose Response HTS to Identify Activators of 5'UTR Stem-Loop Driven Prion Protein mRNA Translation in H4 Neuroglioblastoma Cells. [Related pubchem assays: 1829 (Project Summary), 1814 (Primary HTS)]. Conditions: Homo sapiens.
Test [5] can be described thus: Luminescence Cell-Based Dose Confirmation HTS to Identify Activators of 5'UTR Stem-Loop Driven Alpha-Synuclein mRNA Translation in H4 Neuroglioblastoma Cells. [Related pubchem assays: 1829 (Project Summary), 1814 (Primary HTS)].

Regarding `COCCn1c(C)cc(C(=O)CSc2nc(O)c3ccccc3n2)c1C`, the EC50 in test [1] is 371 nM (active); in test [2], 269 nM (active); in test [3] it was 326 nM (active); in test [4] it was < 100 nM (active).

As for `COc1ccccc1NC(=O)CSc1nc(O)cc(=O)[nH]1`, at Leucine aminopeptidase, the IC50 is 74.7 µM (active).

`c1ccc2nc3c(nc2c1)OCC1CCCCN31` (stereo unspecified): the EC50 in the test with H4 was 161 nM (active); in test [1] it was > 12000 nM (not active); in test [2] it was 1450 nM (active); in test [3] it was 490 nM (active); in test [4], 193 nM (active); in test [5], 475 nM (active).

Turning to `O=C1C2C3CCC(C3)C2C(=O)N1c1ccc(OS(=O)(=O)c2ccccc2)cc1` (stereo unspecified), the concentration for a half-maximal effect (EC50) in test [1] was 366 nM (active); in test [2], 408 nM (active); in test [3], 360 nM (active); in test [4], < 100 nM (inconclusive).

With `Cn1nnc2cc(NC(=O)Nc3cccc(Cl)c3)ccc21`, the EC50 was 109 nM (active) in the test with H4; 413 nM (active) in test [1]; 832 nM (active) in test [2]; 553 nM (active) in test [3]; 176 nM (active) in test [4].

On to `Cc1cccc(NC(=O)CSc2nc3n[nH]cc3c(=O)[nH]2)c1`, for which the IC50 on Leucine aminopeptidase was 3.88 µM (active).
